Tested on: E. coli LF82 strain (adhesion to the brush border of the enterocytes via the type 1 pili)
Assay: Assay of inhibition by D-mannose of adhesion of E. coli LF82 to isolated enterocytes
Assay type: cell-based, Escherichia coli
Details: for Adhesion index with 2% D-mannose: 2% (w/v) D-mannose, mean number of bacteria adhering to the brush border of an enterocyte; for Adhesion index (% relative) with 2% D-mannose: compared with absence of D-mannose = 100%
Method: The adhesion trials were performed as described in Darfeuille-Michaud et al., (1990); S. Knutton et al., (1985) and B. Lafeuille et al., (1981). The frozen intestinal samples were washed 3 times in PBS and the ileal mucosa was scraped with a cover glass in order to detach the enterocytes in PBS buffer supplemented with 0.25 M EDTA. About 10^5 isolated enterocytes were mixed with 10^8 E. coli cells in MEM medium containing 10% fetal calf serum (FCS, Seromed). After incubating for 2 hours at 37° C. and with gentle stirring, the enterocytes were washed 3 times in PBS (pH 7.2). The adhesion of the bacteria was quantified by examining under a phase contrast microscope at magnification×1000. The counting was performed according to a double blind design in order to determine the number of E. coli adhering to the brush border of 30 to 50 enterocytes. The adhesion index is expressed as number of bacteria attached to the brush border of one enterocyte.
The inhibitory power of D-mannose on the adhesion of the E. coli LF82 strain to the brush border of the enterocytes via the type 1 pili was tested. Adhesion trials were performed in the presence of 2% (w/v) D-mannose (Sigma) in MEM containing 10% FCS, the procedure being carried out as described above on enterocytes obtained from 3 CD patients (A, B and C) The results are presented in Table 3.

With `O=C[C@@H](O)[C@@H](O)[C@H](O)[C@H](O)CO` [D-mannose] the “Adhesion index with 2% D-mannose” value (enterocytes of CD patient A) was 0.028, the “Adhesion index (% relative) with 2% D-mannose” value (enterocytes of CD patient A) was 2.7% and the “Adhesion index with 2% D-mannose” value (enterocytes of CD patient B) was 0.032. The “Adhesion index (% relative) with 2% D-mannose” value (enterocytes of CD patient B) was 2.1%, the “Adhesion index with 2% D-mannose” value (enterocytes of CD patient C) was 0.025 and the “Adhesion index (% relative) with 2% D-mannose” value (enterocytes of CD patient C) was 1.4%. The “Effect on index of adhesion of the LF82 strain to the brush border of the enterocytes” value (enterocytes of patients suffering from Crohn's disease, 2% D-mannose) was “significant reduction”.

From patent publication US9176131B2, “Method for diagnosing and treating Crohn's disease” (priority 2004, dated 2015)
